Measurements as given in patent US8309734B2 (Hoffmann-La Roche Inc., priority 2008, dated 2012).

Target: T1, human GPBAR1 receptor (Homo sapiens, UniProt Q8TDU6)
T1 construct: expressed in transfected cells
T1 sequence (Q8TDU6 1-330): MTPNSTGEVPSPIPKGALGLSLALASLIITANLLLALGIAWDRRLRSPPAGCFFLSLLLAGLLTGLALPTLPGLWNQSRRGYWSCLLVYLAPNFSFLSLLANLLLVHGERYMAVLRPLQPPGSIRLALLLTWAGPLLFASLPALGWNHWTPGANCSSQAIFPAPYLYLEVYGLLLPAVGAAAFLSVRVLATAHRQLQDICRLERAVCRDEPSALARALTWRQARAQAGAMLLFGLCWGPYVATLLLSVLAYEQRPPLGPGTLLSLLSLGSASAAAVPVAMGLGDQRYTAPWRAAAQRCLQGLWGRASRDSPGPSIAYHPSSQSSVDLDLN
Assay: functional cAMP assay in CHO-dhfr(minus) cells expressing human GPBAR1 receptors
Assay type: cell-based
Settings: cAMP increase (TR-FRET) in CHO-dhfr(minus) cells expressing human GPBAR1; compounds incubated 30 min at 30° C.

Structure (SMILES) | EC50
O=C(c1cccnc1Oc1cc(Cl)ccc1Cl)N1CC2CCCN2c2ccccc21 (stereo not drawn) [Example 136, [2-(2,5-Dichloro-phenoxy)-pyridin-3-yl]-(2,3,3a,4-tetrahydro-1H-pyrrolo[1,2-a]quinoxalin-5-yl)-methanone] | 246 nM
O=C(c1cccnc1Oc1cc(Cl)c(Br)cc1Cl)N1CCCc2ccccc21 [Example 165, [2-(4-Bromo-2,5-dichloro-phenoxy)-pyridin-3-yl]-(3,4-dihydro-2H-quinolin-1-yl)-methanone] | 340 nM
COC(=O)CCC#Cc1cc(Cl)c(Oc2ncccc2C(=O)N2CCCc3ccccc32)cc1Cl [Example 166, 5-{2,5-Dichloro-4-[3-(3,4-dihydro-2H-quinoline-1-carbonyl)-pyridin-2-yloxy]-phenyl}-pent-4-ynoic acid methyl ester] | 148 nM
COc1ccccc1N(C)C(=O)c1ccncc1Oc1ccc(Cl)cc1Cl [Example 101, 3-(2,4-Dichloro-phenoxy)-N-(2-methoxy-phenyl)-N-methyl-isonicotinamide] | 150 nM
O=C(c1cccnc1Oc1cc(Cl)ccc1Cl)N1CCOc2ccccc21 [Example 36, [2-(2,5-Dichloro-phenoxy)-pyridin-3-yl]-(2,3-dihydro-benzo[1,4]oxazin-4-yl)-methanone] | 135 nM
CSc1ccccc1N(C)C(=O)c1cccnc1Oc1cc(Cl)ccc1Cl [Example 132, 2-(2,5-Dichloro-phenoxy)-N-methyl-N-(2-methylsulfanyl-phenyl)-nicotinamide] | 66 nM
O=C(c1cccnc1Oc1ccc(F)c(Cl)c1)N1CCCc2ccccc21 [Example 10, [2-(3-Chloro-4-fluoro-phenoxy)-pyridin-3-yl]-(3,4-dihydro-2H-quinolin-1-yl)-methanone] | 53 nM
COc1ccc(F)cc1N(C)C(=O)c1cccnc1Oc1cc(Cl)ccc1Cl [Example 54, 2-(2,5-Dichloro-phenoxy)-N-(5-fluoro-2-methoxy-phenyl)-N-methyl-nicotinamide] | 35 nM
O=C(c1cccnc1Oc1cccc(Cl)c1)N1CCOc2ccccc21 [Example 30, [2-(3-Chloro-phenoxy)-pyridin-3-yl]-(2,3-dihydro-benzo[1,4]oxazin-4-yl)-methanone] | 436 nM
COc1ncccc1N(C)C(=O)c1cc(F)cnc1Oc1cc(Cl)ccc1Cl [Example 145, 2-(2,5-Dichloro-phenoxy)-5-fluoro-N-(2-methoxy-pyridin-3-yl)-N-methyl-nicotinamide] | 29 nM
O=C(O)CN1CCN(C(=O)c2cccnc2Oc2cc(Cl)ccc2Cl)c2ccccc21 [Example 142, {4-[2-(2,5-Dichloro-phenoxy)-pyridine-3-carbonyl]-3,4-dihydro-2H-quinoxalin-1-yl}-acetic acid] | 307 nM
COc1ccccc1N(C)C(=O)c1ccncc1Oc1cc(Cl)ccc1Cl [Example 95, 3-(2,5-Dichloro-phenoxy)-N-(2-methoxy-phenyl)-N-methyl-isonicotinamide] | 28 nM
O=C(c1ccncc1Oc1ccc(Cl)cc1Cl)N1CCCc2cc(F)cc(F)c21 [Example 98, [3-(2,4-Dichloro-phenoxy)-pyridin-4-yl]-(6,8-difluoro-3,4-dihydro-2H-quinolin-1-yl)-methanone] | 217 nM
CC1CCc2ccccc2N1C(=O)c1cc(F)ccc1Oc1cc(Cl)ccc1Cl (stereo not drawn) [Example 114, [2-(2,5-Dichloro-phenoxy)-5-fluoro-phenyl]-(2-methyl-3,4-dihydro-2H-quinolin-1-yl)-methanone] | 946 nM
CCN(C(=O)c1cccnc1Oc1cc(Cl)ccc1Cl)c1ccccc1 [Example 32, 2-(2,5-Dichloro-phenoxy)-N-ethyl-N-phenyl-nicotinamide] | 70 nM
CN(C(=O)c1ccncc1Oc1cc(Cl)ccc1Cl)c1ccccc1Cl [Example 94, N-(2-Chloro-phenyl)-3-(2,5-dichloro-phenoxy)-N-methyl-isonicotinamide] | 157 nM
Cc1cccc(N(C)C(=O)c2cccnc2Oc2cc(Cl)ccc2Cl)c1C [Example 57, 2-(2,5-Dichloro-phenoxy)-N-(2,3-dimethyl-phenyl)-N-methyl-nicotinamide] | 385 nM
CN(C(=O)c1cccnc1Oc1cc(Cl)ccc1Cl)c1ncccc1Cl [Example 46, N-(3-Chloro-pyridin-2-yl)-2-(2,5-dichloro-phenoxy)-N-methyl-nicotinamide] | 905 nM
Cc1ccccc1N(C)C(=O)c1cccnc1Oc1cc(Cl)ccc1Cl [Example 41, 2-(2,5-Dichloro-phenoxy)-N-methyl-N-o-tolyl-nicotinamide] | 33 nM
O=C(c1cc(F)cnc1Oc1cccc(Cl)c1)N1CCCc2ccccc21 [Example 25, [2-(3-Chloro-phenoxy)-5-fluoro-pyridin-3-yl]-(3,4-dihydro-2H-quinolin-1-yl)-methanone] | 128 nM
O=C(c1cccnc1Oc1cc(Cl)ccc1Cl)N1CCOc2c(F)cc(F)cc21 [Example 73, [2-(2,5-Dichloro-phenoxy)-pyridin-3-yl]-(6,8-difluoro-2,3-dihydro-benzo[1,4]oxazin-4-yl)-methanone] | 418 nM
O=C(c1cccnc1Oc1cccc(Cl)c1Cl)N1CCCc2ccccc21 [Example 12, [2-(2,3-Dichloro-phenoxy)-pyridin-3-yl]-(3,4-dihydro-2H-quinolin-1-yl)-methanone] | 1150 nM
Cc1ccc2c(c1)CCCN2C(=O)c1cccnc1Oc1cccc(Cl)c1 [Example 5, [2-(3-Chloro-phenoxy)-pyridin-3-yl]-(6-methyl-3,4-dihydro-2H-quinolin-1-yl)-methanone] | 649 nM
O=C(O)CCc1cc(Cl)c(Oc2ncccc2C(=O)N2CCN(C3CC3)c3ccccc32)cc1Cl [Example 173, 3-{2,5-Dichloro-4-[3-(4-cyclopropyl-3,4-dihydro-2H-quinoxaline-1-carbonyl)-pyridin-2-yloxy]-phenyl}-propionic acid] | 47 nM
CN(C(=O)c1ccncc1Oc1ccc(F)c(Cl)c1)c1ccccc1Cl [Example 107, 3-(3-Chloro-4-fluoro-phenoxy)-N-(2-chloro-phenyl)-N-methyl-isonicotinamide] | 662 nM
O=C(c1ccncc1Oc1ccc(F)c(Cl)c1)N1CCCc2cc(F)ccc21 [Example 104, [3-(3-Chloro-4-fluoro-phenoxy)-pyridin-4-yl]-(6-fluoro-3,4-dihydro-2H-quinolin-1-yl)-methanone] | 173 nM
COc1ccc(Cl)c(N(C)C(=O)c2cc(F)cnc2Oc2cc(Cl)ccc2Cl)c1Cl [Example 146, N-(2,6-Dichloro-3-methoxy-phenyl)-2-(2,5-dichloro-phenoxy)-5-fluoro-N-methyl-nicotinamide] | 1970 nM
Cc1ccc2c(c1)CCCN2C(=O)c1cccnc1Oc1cccc(C(F)(F)F)c1 [Example 4, (6-Methyl-3,4-dihydro-2H-quinolin-1-yl)-[2-(3-trifluoromethyl-phenoxy)-pyridin-3-yl]-methanone] | 1400 nM
O=C(c1ccccc1Oc1cc(Cl)ccc1Cl)N1CCCc2cc(F)cc(F)c21 [Example 121, [2-(2,5-Dichloro-phenoxy)-phenyl]-(6,8-difluoro-3,4-dihydro-2H-quinolin-1-yl)-methanone] | 231 nM
COC(=O)CNC(=O)c1cc(Cl)c(Oc2ncccc2C(=O)N2CCN(C3CC3)c3ccccc32)cc1Cl [Example 183, {2,5-Dichloro-4-[3-(4-cyclopropyl-3,4-dihydro-2H-quinoxaline-1-carbonyl)-pyridin-2-yloxy]-benzoylamino}-acetic acid methyl ester] | 341 nM
